{"source": "patent US20180000085A1", "about": "“USE OF PICOLINAMIDE COMPOUNDS WITH FUNGICIDAL ACTIVITY” (DOW AGROSCIENCES LLC, priority 2014, published 2018)", "key": {"Puccinia triticina": {"system": "Puccinia triticina", "assay": "Wheat brown rust (PUCCRT) disease control on wheat seedlings", "assay_type": "in vivo", "parameters": "key to PUCCRT 3DC, HV activity at 100 ppm (% control rating) / PUCCRT disease control, 3DC / PUCCRT 1DP disease control rating, HV activity / PUCCRT 3DC disease control rating, HV activity / PUCCRT 3DC, LV activity at 125.1 g/H (% Control rating) / PUCCRT 1DP, LV activity at 125.1 g/H (% Control rating) / PUCCRT 3DC disease control rating, LV activity at 125.1 g/H / PUCCRT 1DP disease control rating, LV activity at 125.1 g/H / PUCCRT 3DC disease control rating, HV activity at 100 ppm / PUCCRT 1DP disease control rating, HV activity at 100 ppm / HV activity at 100 ppm PUCCRT 3DC (disease control rating) / LV activity at 125.1 g/H PUCCRT 1DP (disease control rating) / LV activity at 125.1 g/H PUCCRT 3DC (disease control rating): A: > 80; B: ≤ 80; C: Not Tested; D: No Activity Observed in the Reported Assay", "conditions": "for PUCCRT 1DP disease control rating, HV activity / PUCCRT 3DC disease control rating, HV activity: HV application at 100 ppm"}, "Zymoseptoria tritici": {"system": "Zymoseptoria tritici", "assay": "Leaf blotch of wheat (SEPTTR) disease control on wheat seedlings", "assay_type": "in vivo", "parameters": "key to SEPTTR 1DP, HV activity at 100 ppm (% control rating) / SEPTTR 3DC, HV activity at 100 ppm (% control rating) / SEPTTR disease control, 1DP / SEPTTR disease control, 3DC / SEPTTR 1DP disease control rating, HV activity / SEPTTR 3DC disease control rating, HV activity / SEPTTR 3DC, LV activity at 125.1 g/H (% Control rating) / SEPTTR 1DP, LV activity at 125.1 g/H (% Control rating) / SEPTTR 1DP disease control rating, LV activity at 125.1 g/H / SEPTTR 3DC disease control rating, LV activity at 125.1 g/H / SEPTTR 3DC disease control rating, HV activity at 100 ppm / SEPTTR 1DP disease control rating, HV activity at 100 ppm / HV activity at 100 ppm SEPTTR 3DC (disease control rating) / HV activity at 100 ppm SEPTTR 1DP (disease control rating) / LV activity at 125.1 g/H SEPTTR 1DP (disease control rating) / LV activity at 125.1 g/H SEPTTR 3DC (disease control rating): A: > 80; B: ≤ 80; C: Not Tested; D: No Activity Observed in the Reported Assay", "conditions": "for SEPTTR 1DP disease control rating, HV activity / SEPTTR 3DC disease control rating, HV activity: HV application at 100 ppm"}, "[1]": {"conditions": "low volume application, 125.1 g/H, 1 day protectant"}, "[2]": {"conditions": "low volume application, 125.1 g/H, 3 day curative"}, "[3]": {"conditions": "low volume application, 125.1 g/H, 1 Day Protectant, wheat brown rust"}, "[4]": {"conditions": "low volume application, 125.1 g/H, 3 Day Curative, wheat brown rust"}, "[5]": {"conditions": "low volume application, 125.1 g/H, 1 Day Protectant, wheat leaf blotch"}, "[6]": {"conditions": "low volume application, 125.1 g/H, 3 Day Curative, wheat leaf blotch"}, "[7]": {"conditions": "1 Day Protectant, wheat brown rust"}, "[8]": {"conditions": "3 Day Curative, wheat brown rust"}, "[9]": {"conditions": "1 Day Protectant, wheat leaf blotch"}, "[10]": {"conditions": "3 Day Curative, wheat leaf blotch"}, "[11]": {"conditions": "low volume application, 125.1 g/H, 1 Day Protectant"}, "[12]": {"conditions": "low volume application, 125.1 g/H, 3 Day Curative"}, "[13]": {"conditions": "high volume application, 100 ppm, 1 day protectant"}, "[14]": {"conditions": "high volume application, 100 ppm, 3 day curative"}}, "data": [{"smiles": "COc1ccnc(C(=O)N[C@@H](C)C(=O)O[C@@H](C)[C@@H](CC(C)C)Oc2cccc(Cl)c2)c1O", "note": "[Cmpd 1050]", "values": [{"measurement": "HV activity at 100 ppm PUCCRT 1DP (disease control rating)", "setting": "Puccinia triticina; HV application, 100 ppm, 1 Day Protectant, wheat brown rust", "value": "A (> 80)"}, {"measurement": "HV activity at 100 ppm PUCCRT 3DC (disease control rating)", "setting": "Puccinia triticina; HV application, 100 ppm, 3 Day Curative, wheat brown rust", "value": "A (> 80)"}, {"measurement": "HV activity at 100 ppm SEPTTR 1DP (disease control rating)", "setting": "Zymoseptoria tritici; HV application, 100 ppm, 1 Day Protectant, wheat leaf blotch", "value": "A (> 80)"}, {"measurement": "HV activity at 100 ppm SEPTTR 3DC (disease control rating)", "setting": "Zymoseptoria tritici; HV application, 100 ppm, 3 Day Curative, wheat leaf blotch", "value": "A (> 80)"}]}, {"smiles": "COc1ccnc(C(=O)N[C@@H](C)C(=O)O[C@@H](C)[C@@H](OCC(C)C)c2ccccc2)c1OC(C)=O", "note": "[Cmpd 878]", "values": [{"measurement": "PUCCRT 1DP disease control rating, LV activity at 125.1 g/H", "setting": "Puccinia triticina; [1]", "value": "A (> 80)"}, {"measurement": "PUCCRT 3DC disease control rating, LV activity at 125.1 g/H", "setting": "Puccinia triticina; [2]", "value": "A (> 80)"}, {"measurement": "SEPTTR 1DP disease control rating, LV activity at 125.1 g/H", "setting": "Zymoseptoria tritici; [1]", "value": "B (≤ 80)"}, {"measurement": "SEPTTR 3DC disease control rating, LV activity at 125.1 g/H", "setting": "Zymoseptoria tritici; [2]", "value": "B (≤ 80)"}]}, {"smiles": "COc1cc(O[C@H](C2CC2)[C@H](C)OC(=O)[C@H](C)NC(=O)c2nccc(OC)c2OC(C)=O)ccc1Cl", "note": "[Cmpd 1069]", "values": [{"measurement": "LV activity at 125.1 g/H PUCCRT 1DP (disease control rating)", "setting": "Puccinia triticina; [3]", "value": "A (> 80)"}, {"measurement": "LV activity at 125.1 g/H PUCCRT 3DC (disease control rating)", "setting": "Puccinia triticina; [4]", "value": "A (> 80)"}, {"measurement": "LV activity at 125.1 g/H SEPTTR 1DP (disease control rating)", "setting": "Zymoseptoria tritici; [5]", "value": "B (≤ 80)"}, {"measurement": "LV activity at 125.1 g/H SEPTTR 3DC (disease control rating)", "setting": "Zymoseptoria tritici; [6]", "value": "B (≤ 80)"}]}, {"smiles": "C=CC[C@@H](Oc1ccc(Cl)cc1Cl)[C@H](C)OC(=O)[C@H](C)NC(=O)c1nccc(OC)c1OC(C)=O", "note": "[Cmpd 697]", "values": [{"measurement": "PUCCRT 1DP disease control rating, LV activity at 125.1 g/H", "setting": "Puccinia triticina; [1]", "value": "A (> 80)"}, {"measurement": "PUCCRT 3DC disease control rating, LV activity at 125.1 g/H", "setting": "Puccinia triticina; [2]", "value": "A (> 80)"}, {"measurement": "SEPTTR 1DP disease control rating, LV activity at 125.1 g/H", "setting": "Zymoseptoria tritici; [1]", "value": "D"}, {"measurement": "SEPTTR 3DC disease control rating, LV activity at 125.1 g/H", "setting": "Zymoseptoria tritici; [2]", "value": "B (≤ 80)"}]}, {"smiles": "CCC(CC)C(Oc1ccccc1Cl)C(C)OC(=O)C(C)NC(=O)c1nccc(OC)c1O", "note": "(stereo not shown) [Cmpd 384]", "values": [{"measurement": "PUCCRT 1DP disease control rating, HV activity", "setting": "Puccinia triticina; [7]", "value": "A (> 80)"}, {"measurement": "PUCCRT 3DC disease control rating, HV activity", "setting": "Puccinia triticina; [8]", "value": "A (> 80)"}, {"measurement": "SEPTTR 1DP disease control rating, HV activity", "setting": "Zymoseptoria tritici; [9]", "value": "B (≤ 80)"}, {"measurement": "SEPTTR 3DC disease control rating, HV activity", "setting": "Zymoseptoria tritici; [10]", "value": "A (> 80)"}]}, {"smiles": "COc1ccnc(C(=O)NC(C)C(=O)OC(C)C(Oc2ccc(Cl)cc2Cl)c2ccccc2)c1OCOC(C)=O", "note": "(stereo not shown) [Cmpd 869]", "values": [{"measurement": "PUCCRT 1DP disease control rating, LV activity at 125.1 g/H", "setting": "Puccinia triticina; [1]", "value": "A (> 80)"}, {"measurement": "PUCCRT 3DC disease control rating, LV activity at 125.1 g/H", "setting": "Puccinia triticina; [2]", "value": "B (≤ 80)"}, {"measurement": "SEPTTR 1DP disease control rating, LV activity at 125.1 g/H", "setting": "Zymoseptoria tritici; [1]", "value": "A (> 80)"}, {"measurement": "SEPTTR 3DC disease control rating, LV activity at 125.1 g/H", "setting": "Zymoseptoria tritici; [2]", "value": "A (> 80)"}]}, {"smiles": "COc1ccnc(C(=O)N[C@@H](C)C(=O)O[C@@H](C)[C@H](Oc2ccc(Cl)cc2Cl)c2ccccc2)c1OCOC(C)=O", "note": "[Cmpd 634]", "values": [{"measurement": "PUCCRT 1DP, LV activity at 125.1 g/H (% Control rating)", "setting": "Puccinia triticina; [11]", "value": "A (> 80)"}, {"measurement": "PUCCRT 3DC, LV activity at 125.1 g/H (% Control rating)", "setting": "Puccinia triticina; [12]", "value": "B (≤ 80)"}, {"measurement": "SEPTTR 1DP, LV activity at 125.1 g/H (% Control rating)", "setting": "Zymoseptoria tritici; [11]", "value": "A (> 80)"}, {"measurement": "SEPTTR 3DC, LV activity at 125.1 g/H (% Control rating)", "setting": "Zymoseptoria tritici; [12]", "value": "A (> 80)"}]}, {"smiles": "CCCOC(CC)C(Oc1ccccc1)C(C)OC(=O)C(NC(=O)c1nccc(OC)c1OC(C)=O)C(C)C", "note": "(stereo not shown) [Cmpd 451]", "values": [{"measurement": "PUCCRT 1DP disease control rating, HV activity", "setting": "Puccinia triticina; [7]", "value": "A (> 80)"}, {"measurement": "PUCCRT 3DC disease control rating, HV activity", "setting": "Puccinia triticina; [8]", "value": "A (> 80)"}, {"measurement": "SEPTTR 1DP disease control rating, HV activity", "setting": "Zymoseptoria tritici; [9]", "value": "B (≤ 80)"}, {"measurement": "SEPTTR 3DC disease control rating, HV activity", "setting": "Zymoseptoria tritici; [10]", "value": "A (> 80)"}]}, {"smiles": "CCC[C@@H](Oc1ccc(Cl)c(OC)c1)[C@H](C)OC(=O)[C@H](C)NC(=O)c1nccc(OC)c1OC(C)=O", "note": "[Cmpd 1054]", "values": [{"measurement": "LV activity at 125.1 g/H PUCCRT 1DP (disease control rating)", "setting": "Puccinia triticina; [3]", "value": "A (> 80)"}, {"measurement": "LV activity at 125.1 g/H PUCCRT 3DC (disease control rating)", "setting": "Puccinia triticina; [4]", "value": "A (> 80)"}, {"measurement": "LV activity at 125.1 g/H SEPTTR 1DP (disease control rating)", "setting": "Zymoseptoria tritici; [5]", "value": "B (≤ 80)"}, {"measurement": "LV activity at 125.1 g/H SEPTTR 3DC (disease control rating)", "setting": "Zymoseptoria tritici; [6]", "value": "B (≤ 80)"}]}, {"smiles": "COc1ccnc(C(=O)NC(C)C(=O)OC(C)C(OCC2CC2)C23CC4CC(CC(C4)C2)C3)c1O", "note": "(stereo not shown) [Cmpd 827]", "values": [{"measurement": "PUCCRT 1DP disease control rating, HV activity at 100 ppm", "setting": "Puccinia triticina; [13]", "value": "A (> 80)"}, {"measurement": "PUCCRT 3DC disease control rating, HV activity at 100 ppm", "setting": "Puccinia triticina; [14]", "value": "D"}, {"measurement": "SEPTTR 1DP disease control rating, HV activity at 100 ppm", "setting": "Zymoseptoria tritici; [13]", "value": "B (≤ 80)"}, {"measurement": "SEPTTR 3DC disease control rating, HV activity at 100 ppm", "setting": "Zymoseptoria tritici; [14]", "value": "D"}]}]}
